Legend:
Mus musculus = organism: Mus musculus; assay: Tested for the analgesic activity in mouse writhing assay; type: functional
[1] = target: Mu-type opioid receptor (Rattus norvegicus) (UniProt P33535); assay: Binding affinity against mu opioid receptors from rat brain (minus cerebellum) using [3H]DAMGO (2.0 nM) at 10 uM; type: tissue-based
[2] = target: Delta-type opioid receptor (Rattus norvegicus) (UniProt P33533); assay: Binding affinity against Opioid receptor delta 1 from rat brain using (1.0 nM [3H]DTLET or 1.0 nM [3H]-DSLET) at 6 uM
Sequence of Delta-type opioid receptor (Rattus norvegicus) (P33533 whole entry): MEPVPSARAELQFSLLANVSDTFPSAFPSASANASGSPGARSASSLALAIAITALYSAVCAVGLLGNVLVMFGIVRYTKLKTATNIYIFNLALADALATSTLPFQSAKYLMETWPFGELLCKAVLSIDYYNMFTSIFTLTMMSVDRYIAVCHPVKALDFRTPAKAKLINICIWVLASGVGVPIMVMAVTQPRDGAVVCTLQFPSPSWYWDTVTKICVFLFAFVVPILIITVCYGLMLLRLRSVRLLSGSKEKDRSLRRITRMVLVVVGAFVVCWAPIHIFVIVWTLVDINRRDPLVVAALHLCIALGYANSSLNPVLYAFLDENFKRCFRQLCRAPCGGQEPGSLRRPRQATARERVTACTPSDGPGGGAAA

Sequence of Mu-type opioid receptor (Rattus norvegicus) (P33535 whole entry): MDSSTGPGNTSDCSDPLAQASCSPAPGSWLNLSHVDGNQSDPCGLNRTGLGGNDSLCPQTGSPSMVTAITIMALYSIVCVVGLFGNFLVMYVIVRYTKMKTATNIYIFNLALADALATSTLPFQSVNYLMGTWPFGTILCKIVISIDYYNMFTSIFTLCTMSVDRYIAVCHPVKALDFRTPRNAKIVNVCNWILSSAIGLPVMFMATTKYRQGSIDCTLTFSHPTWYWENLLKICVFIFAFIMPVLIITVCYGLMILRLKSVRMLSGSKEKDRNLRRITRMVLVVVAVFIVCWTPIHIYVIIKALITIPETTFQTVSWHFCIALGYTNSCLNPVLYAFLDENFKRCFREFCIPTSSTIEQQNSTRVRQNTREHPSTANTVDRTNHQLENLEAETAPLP

Displacement [1]: 53%
Displacement [2]: 50%
SMILES: COC(=O)C[C@@H]1CC[C@H](Cc2ccccc2)NC(=O)CCC(CNC(=O)[C@@H](N)Cc2ccc(O)cc2)C(=O)N1 (stereo partly drawn)
ED50 (Mus musculus): <10 µg/mL

Reference: ChEMBL document CHEMBL1126995, “Nonpeptide -turn mimetics of enkephalin” (1993)
